According to US6440995B1, “Quinolin-4-yl derivatives” (Hoffman-La Roche Inc., priority 1999, dated 2002):
Where a name gives a salt, the structure may show the parent alone.

System: not given
Assay: not given
Conditions: not given

Compound | melting point
Cc1ccc(-c2cc(NCC(O)CN)c3ccccc3n2)cc1.Cl (racemic) [Example 2, (RS)-1-Amino-3-(2-p-tolyl-quinolin-4-ylamino)-propan-2-ol hydrochloride] | 264 to 272 °C
Cl.OCCNc1cc(-c2ccc3c(c2)CCCC3)nc2ccccc12 [Example 18, 2-[2-(5,6,7,8-Tetrahydro-naphthalen-2-yl)-quinolin-4-ylamino]-ethanol hydrochloride] | 250 to 252 °C
Cl.OCC(O)CNc1cc(N2Cc3ccccc3C2)nc2ccccc12 (racemic) | 295 to 301 °C
C[C@H](O)CNc1cc(-c2ccc3c(c2)CCO3)nc2ccccc12.Cl | 236 to 242 °C
Cl.OCCNc1cc(-c2ccc(Cl)cc2)nc2ccccc12 | 262 to 264 °C
CC(C)NCC(O)COc1cc(-c2ccccc2)nc2ccccc12 (racemic) | 109 to 111 °C
Cl.OCC(O)CNc1cc(CCc2ccccc2)nc2ccccc12 (racemic) | 143 to 145 °C
COc1ccc(-c2cc(N(C)CCO)c3ccccc3n2)cc1.Cl [Example 46, 2-{[2-(4-Methoxy-phenyl)-quinolin-4-yl]-methyl-amino}-ethanol hydrochloride] | 201 to 204 °C
Cc1ccc(-c2cc(NCC(O)CO)c3ccccc3n2)cc1Cl.Cl (racemic) | 230 to 231 °C
OCC(O)CNc1cc(-c2ccc3c(c2)CCO3)nc2ccccc12 (racemic) (as salt: hydrochloride) [Example 32, (RS)-3-[2-(2,3-Dihydro-benzofuran-5-yl)-quinolin-4-ylamino]-propane-1,2-diol hydrochloride] | 267 to 270 °C

Continued, values first:

melting point | Compound
208 to 215 °C | Cc1cccc(-c2cc(NCC(O)CO)c3ccccc3n2)c1.Cl (racemic)
146 to 150 °C | CNCC(O)COc1cc(-c2ccc(C)cc2)nc2cc(C)ccc12 (racemic)
263 to 265 °C | Cl.OCC(O)CNc1cc(-c2cc3ccccc3o2)nc2ccccc12 (racemic)
110 to 116 °C | COc1cccc2c(NCC(O)CO)cc(-c3ccccc3)nc12.Cl (racemic)
140 to 142 °C | CNCC(O)COc1cc(-c2ccc(OC)cc2)nc2cc(C)ccc12 (racemic)
192 to 193 °C | CNCC(O)COc1cc(-c2ccccc2)nc2cc(Cl)ccc12.Cl (racemic)
220 to 222 °C | O=C(O)/C=C/C(=O)O.OCC(O)CNc1cc(/C=C/c2ccccc2)nc2ccccc12 (racemic)
233 to 238 °C | COc1ccc(-c2cc(NCCO)c3ccc(C)cc3n2)cc1.Cl
264 to 267 °C | Cc1ccc(-c2cc(NC[C@H](C)O)c3ccc(C)cc3n2)cc1.Cl
236 to 238 °C | CNCC(O)COc1cc(-c2ccsc2)nc2ccccc12.Cl (racemic)
283 to 287 °C | Cl.Cl.NCC(O)CNc1cc(-c2ccc(Cl)cc2)nc2ccccc12 (racemic)
251 to 253 °C | CC(O)CNc1cc(-c2ccccc2)nc2ccccc12.Cl (racemic)
170 to 174 °C | CCNCC(O)COc1cc(-c2ccccc2)nc2ccccc12.Cl (stereo not shown)
225 to 227 °C | Cl.OCC(O)CNc1cc(-c2ccccc2)nc2ccccc12 (racemic)
291 to 294 °C | Cl.NCC(O)CNc1cc(-c2ccccc2)nc2ccccc12 (racemic)
205 to 209 °C | COc1cccc2c(NCCO)cc(-c3ccccc3)nc12.Cl
283 to 287 °C | NCC(O)CNc1cc(-c2ccc(Cl)cc2)nc2ccccc12 (racemic)
260 to 263 °C | Cc1ccc(-c2cc(NCCO)c3ccc(C)cc3n2)cc1.Cl

Target: T1, NMDA receptor (Rattus norvegicus, UniProt P35439+Q00960)
T1 construct: Membranes were prepared by homogenization of the whole brain minus cerebellum and medulla oblongata; from tissue; host or cells: rat whole brain minus cerebellum and medulla oblongata, membranes
T1 sequence (Q00960 27-1482, other chains not shown): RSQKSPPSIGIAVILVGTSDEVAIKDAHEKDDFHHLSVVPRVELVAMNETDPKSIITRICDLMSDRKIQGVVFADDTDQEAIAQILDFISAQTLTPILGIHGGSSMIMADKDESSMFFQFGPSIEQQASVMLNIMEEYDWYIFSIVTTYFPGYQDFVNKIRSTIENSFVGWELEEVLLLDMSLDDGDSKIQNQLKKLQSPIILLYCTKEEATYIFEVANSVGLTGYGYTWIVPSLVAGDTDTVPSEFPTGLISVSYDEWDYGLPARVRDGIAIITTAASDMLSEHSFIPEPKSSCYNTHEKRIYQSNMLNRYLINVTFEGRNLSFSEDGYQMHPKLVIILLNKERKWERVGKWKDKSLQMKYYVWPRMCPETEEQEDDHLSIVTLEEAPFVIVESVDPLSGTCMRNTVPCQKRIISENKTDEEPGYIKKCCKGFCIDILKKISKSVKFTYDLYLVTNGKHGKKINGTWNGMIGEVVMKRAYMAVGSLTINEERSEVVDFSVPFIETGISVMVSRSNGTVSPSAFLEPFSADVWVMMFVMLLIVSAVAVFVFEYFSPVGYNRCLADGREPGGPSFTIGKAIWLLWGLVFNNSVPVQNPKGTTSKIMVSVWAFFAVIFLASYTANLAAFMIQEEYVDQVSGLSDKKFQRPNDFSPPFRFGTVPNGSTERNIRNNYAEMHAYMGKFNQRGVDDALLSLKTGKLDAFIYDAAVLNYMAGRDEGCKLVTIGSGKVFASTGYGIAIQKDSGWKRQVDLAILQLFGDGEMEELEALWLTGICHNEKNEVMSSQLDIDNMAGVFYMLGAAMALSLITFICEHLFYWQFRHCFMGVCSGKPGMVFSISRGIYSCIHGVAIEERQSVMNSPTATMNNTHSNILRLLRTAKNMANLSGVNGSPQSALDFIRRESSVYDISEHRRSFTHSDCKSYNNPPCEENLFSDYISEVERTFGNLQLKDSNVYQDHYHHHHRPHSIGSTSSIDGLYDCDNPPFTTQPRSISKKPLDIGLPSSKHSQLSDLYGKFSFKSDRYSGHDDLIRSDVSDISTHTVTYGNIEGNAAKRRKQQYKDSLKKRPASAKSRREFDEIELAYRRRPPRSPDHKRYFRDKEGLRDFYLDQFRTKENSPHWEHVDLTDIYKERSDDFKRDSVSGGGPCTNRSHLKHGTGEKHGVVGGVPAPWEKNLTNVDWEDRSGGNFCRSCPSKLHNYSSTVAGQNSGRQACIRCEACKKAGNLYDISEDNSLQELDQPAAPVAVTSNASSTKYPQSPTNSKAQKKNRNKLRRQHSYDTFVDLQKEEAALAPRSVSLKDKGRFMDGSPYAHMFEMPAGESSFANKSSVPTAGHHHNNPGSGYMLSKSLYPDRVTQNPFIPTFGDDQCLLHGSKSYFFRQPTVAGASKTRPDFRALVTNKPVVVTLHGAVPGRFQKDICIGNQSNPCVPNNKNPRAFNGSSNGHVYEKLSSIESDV
Assay: 3H-Ro 25-6981 binding (displacement, rat brain membranes)
Conditions: displacement of 5 nM 3H-Ro 25-6981; rat whole brain minus cerebellum and medulla oblongata membranes; 2 hours at 4° C., pH 7.4
Description: 3H-Ro 25-6981 binding (Ro 25-6981 is [R-(R*,S*)]-a-(4-Hydroxy-phenyl)-b-methyl-4-(phenyl-methyl)-1-piperidine propanol)
Male Füllinsdorf albino rats weighing between 150-200 g were used. Membranes were prepared by homogenization of the whole brain minus cerebellum and medulla oblongata with a Polytron (10 000 rpm, 30 seconds), in 25 volumes of a cold Tris-HCl 50 mM, EDTA 10 mM, pH 7.1 buffer. The homogenate was centrifuged at 48.000 g for 10 minutes at 4° C. The pellet was resuspended using the Polytron in the same volume of buffer and the homogenate was incubated at 37° C. for 10 minutes. After centrifugation the pellet was homogenized in the same buffer and frozen at −80° C. for at least 16 hours but not more than 10 days. For the binding assay the homogenate was thawed at 37° C., centrifuged and the pellet was washed three times as above in a Tris-HCl 5 mM, pH 7.4 cold buffer. The final pellet was resuspended in the same buffer and used at a final concentration of […].
3H-Ro 25-6981 binding experiments were performed using a Tris-HCl 50 mM, pH 7.4 buffer. For displacement experiments 5 nM of 3H-Ro 25-6981 were used and non specific binding was measured using 10 mM of tetrahydroisoquinoline and usually it accounts for 10% of the total. The incubation time was 2 hours at 4° C. and the assay was stopped by filtration on Whatmann GF/B glass fiber filters (Unifilter-96, Packard, Zürich, Switzerland). The filters were washed 5 times with cold buffer. The radioactivity on the filter was counted on a Packard Top-count microplate scintillation counter after addition of […] of microscint 40 (Canberra Packard S.A., Zürich, Switzerland).
The effects of compounds were measured using a minimum of 8 concentrations and repeated at least once. The pooled normalized values were analyzed using a non-linear regression calculation program which provide IC50) with their relative upper and lower 95% confidence limits (RS1, BBN, USA).

Compound | IC50
Cc1ccc(-c2cc(NCC(O)CN)c3ccccc3n2)cc1.Cl (racemic) [Example 2, (RS)-1-Amino-3-(2-p-tolyl-quinolin-4-ylamino)-propan-2-ol hydrochloride] | 20 nM
Cl.OCCNc1cc(-c2ccc3c(c2)CCCC3)nc2ccccc12 [Example 18, 2-[2-(5,6,7,8-Tetrahydro-naphthalen-2-yl)-quinolin-4-ylamino]-ethanol hydrochloride] | 40 nM
NCC(O)CNc1cc(N2CCc3ccccc3C2)nc2ccccc12 (racemic) [Example 10, (RS)-1-Amino-3-[2-(3,4-dihydro-1H-isoquinolin-2-yl)-quinolin-4-ylamino]-propan-2-ol hydrochloride] | 30 nM
OCC(O)CNc1cc(-c2ccc3c(c2)CCO3)nc2ccccc12 (racemic) [Example 32, (RS)-3-[2-(2,3-Dihydro-benzofuran-5-yl)-quinolin-4-ylamino]-propane-1,2-diol hydrochloride] | 66 nM
CNCC(O)CNc1cc(-c2ccc(OC)cc2)nc2ccccc12 (racemic) [Example 77, (RS)-1-[2-(4-Methoxy-phenyl)-quinolin-4-ylamino]-3-methylamino-propan-2-ol hydrochloride] | 58 nM
COc1ccc(-c2cc(N(C)CCO)c3ccccc3n2)cc1.Cl [Example 46, 2-{[2-(4-Methoxy-phenyl)-quinolin-4-yl]-methyl-amino}-ethanol hydrochloride] | 130 nM
